This note sets out measurements from PubChem BioAssay (NCI).

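Values below derive from 48-hour exposures of cells grown in 96-well plates, with endpoints linearly interpolated between the two concentrations bracketing the appropriate inhibition level. TGI: total growth inhibition.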

Common to all, as to test: growth of human tumour cells (NCI), 48 h
The subject of assay [1] is OVCAR-5 ovarian.
Assay [2] has as its system HCC-2998 colon.
Assay [3] has as its system TK-10 renal.
Assay [4] concerns OVCAR-4 ovarian.
The subject of assay [5] is HCT-15 colon.
Assay [6] has as its system RPMI-8226 leukemia.
The test system of assay [7] is SF-539 CNS.
The test system of assay [8] is MALME-3M melanoma.
The test system of assay [9] is K-562 leukemia.
For assay [10], the system named is SNB-19 CNS.

For `N#CNC(N)=NCc1ccccc1`, the TGI in assay [1], in assay [2], in assay [3], in assay [4], in assay [5] and in [6] was > 100 µM throughout. The TGI in assay [7] and in assay [8] was > 100 µM in each case.
In the case of `NC1=CC(=O)c2c(O)ccc(O)c2C1=O`, the TGI is > 50.5 µM in assay [9]; 35.3 µM in assay [1]; 24.2 µM in assay [2]; > 84.8 µM in assay [3]; 23.1 µM in [4]; > 56.1 µM in assay [5]. The TGI was 44.9 µM in assay [6], > 65.9 µM in assay [10], 36 µM in assay [7] and 7.08 µM in assay [8].
Take `CC1=CC2C3(C)C(C)(C(C)=CP3(=O)c3c(C(C)C)cc(C(C)C)cc3C(C)C)C1P2(=O)c1c(C(C)C)cc(C(C)C)cc1C(C)C` (stereo not drawn): the TGI was determined as 12.8 µM in assay [9]; 6.31 µM in assay [1]; 3.47 µM in assay [2]; 7.34 µM in [3]; 16.1 µM in [4]; 5.87 µM in assay [5]. The TGI in assay [6] was found to be 3.02 µM; in [10], 15.8 µM; in assay [8] it was 5.79 µM.
On to `CN(C)CCNC(=O)c1cccc2c1Nc1ccccc1S2`, for which the TGI came to 36.2 µM in assay [9]; 26.3 µM in [1]; 27.2 µM in [2]; 26.4 µM in [4]; 31.4 µM in [5]; 29.9 µM in [6]. Further, the TGI in assay [10] came to 24 µM; in assay [7], 28.8 µM; in [8], 29.2 µM.
`O=c1[nH]c(NCc2ccncc2)nc2nc[nH]c12`: the TGI in [9], in assay [1], in assay [2], in assay [3], in assay [4] and in assay [5] was > 100 µM each time. Also, the TGI in assay [6], in [10] and in [8] was > 100 µM in each case.
Take `CSCC[C@@H](NC(=O)[C@H](CC(C)C)NC(=O)C(Cc1cnc[nH]1)NC(=O)CNC(=O)[C@@H](NC(=O)[C@H](C)NC(=O)[C@H](Cc1c[nH]c2ccccc12)NC(=O)[C@H](CCC(N)=O)NC(=O)[C@@H](N)CC(N)=O)C(C)C)C(N)=O` (stereo partly drawn): the TGI in [9], in [1], in [2], in assay [4], in [5] and in assay [6] was > 100 µM each time. Besides, the TGI in [10], in assay [7] and in [8] was > 100 µM each time.
For `O=C(NCc1ccccc1)c1cc2ccccc2oc1=Nc1cccc(C(F)(F)F)c1`, the TGI in [9] was > 100 µM; in assay [1], > 100 µM; in assay [2], 61.1 µM; in assay [3], > 100 µM; in assay [4], > 100 µM; in assay [5] it was > 100 µM. In addition, the TGI in assay [6], in assay [10] and in assay [8] was > 100 µM each time.
Regarding `Cn1c2ccccc2n2c3ncccc3c(=O)c(C#N)c12`, the TGI in [9] was > 100 µM; in assay [1], > 100 µM; in [2], > 100 µM; in [3], > 100 µM; in assay [4], > 100 µM; in [5], > 53.8 µM. The figures for the TGI in assay [6], in [10] and in assay [8] were > 100 µM, > 62.5 µM and > 100 µM, respectively.
Turning to `O=C(COc1ccc(OCC(=O)N/N=C/c2ccc(-c3ccc(Cl)cc3Cl)o2)c(Cl)c1)N/N=C/c1ccc(-c2ccc(Cl)cc2Cl)o1`, the TGI in assay [9] is 50.2 µM; in [1], > 100 µM; in assay [2], > 100 µM; in assay [3], > 100 µM; in assay [4] it was > 100 µM; in assay [5], > 100 µM. Further, the TGI in assay [6] was 38.4 µM; in assay [10] it was > 100 µM; in assay [8], > 100 µM.
As to `Cc1nc(N)c(N2CCN(C#N)CC2)c(=O)[nH]1`, the TGI in assay [9], in [1], in assay [2], in [3], in assay [5] and in [6] was > 100 µM in each case. Besides, the TGI in assay [10], in [7] and in assay [8] was > 100 µM throughout.
On to `COc1cccc(C2c3cc4c(cc3OC(O)C2C)OCO4)c1OC` (stereo not drawn), for which the TGI was 15.5 µM in assay [9]; 60.9 µM in [1]; 46 µM in assay [2]; 52 µM in [3]; > 100 µM in assay [5]; 14.6 µM in assay [6]. Further, the TGI in assay [10] is 74.2 µM; in assay [7] it was 26.8 µM; in assay [8], 32.9 µM.
On to `Nc1ncnc2c1nnn2C1C=CC(CP(=O)(O)O)C1` (stereo not drawn), for which the TGI in [1], in assay [2], in assay [3], in assay [4], in [5] and in [6] was > 100 µM each time. In addition, the TGI in assay [10], in assay [7] and in [8] was > 100 µM in each case.
Regarding `CCCCCCCC(=O)OCC(COC(=O)C(C)(C)C)OC(=O)Cc1ccccc1` (stereo not drawn), the TGI in [9], in [1], in [2], in assay [3], in assay [4] and in assay [5] was > 100 µM in each case. In addition, the TGI in assay [6], in assay [10] and in [8] was > 100 µM in each case.
In the case of `Cc1ccc(-c2cc(-c3ccco3)c(C#N)c(=S)[nH]2)cc1`, the TGI in [9], in assay [1], in assay [2], in [3], in assay [4] and in assay [5] was > 100 µM throughout. Moreover, the TGI in assay [6], in [10] and in assay [8] was > 100 µM each time.
For the compound `Cc1c(N2CCOCC2)nc2ccc(Cl)cc2c1-c1ccccc1`, the TGI in [9], in assay [2], in assay [3], in [4], in [5] and in [6] was > 100 µM each time. Further, the TGI in assay [10], in [7] and in [8] was > 100 µM each time.
With `COc1cc(C)c(CC/C(C)=C/Cc2cc(O)ccc2O)c(C)c1C`, the TGI in assay [9], in assay [2], in [3], in [4], in assay [5] and in assay [6] was > 25 µM in each case. Moreover, the TGI in assay [10], in [7] and in assay [8] was > 25 µM each time.
For the compound `NCCN1CCCCCc2ccccc21`, the TGI in assay [9], in assay [2], in assay [3], in assay [4], in [5] and in assay [6] was > 10 µM each time. For the same compound, the TGI in assay [10], in assay [7] and in assay [8] was > 10 µM throughout.
With `CC(=O)O[C@@H](c1nccn1Cc1ccccc1)[C@H]1OC(C)(C)O[C@@H]1[C@H]1COC(C)(C)O1`, the TGI in assay [9], in [1], in assay [2], in assay [3], in assay [4] and in assay [5] was > 100 µM each time. In addition, the TGI in assay [6], in assay [7] and in assay [8] was > 100 µM each time.
For the compound `CC(=O)Nc1nc(Cl)cc(NCC2(CO)CCC2)n1`, the TGI in assay [9], in [1], in [2], in assay [4], in [5] and in assay [6] was > 100 µM in each case. Further, the TGI in assay [10] and in assay [8] was > 100 µM throughout.
In the case of `O=[N+]([O-])c1ccc(C[P+]2(c3ccccc3)CCCCC2)cc1`, the TGI in assay [9], in assay [1], in assay [2], in assay [3], in assay [5] and in assay [6] was > 100 µM in each case. The TGI in [10], in assay [7] and in assay [8] was > 100 µM in each case.
In the case of `COc1ccc2ccc3oc(=O)c(C)cc3c2c1`, the TGI in assay [9], in [1], in assay [2], in assay [3], in [4] and in assay [6] was > 100 µM each time. In addition, the TGI in assay [10], in assay [7] and in [8] was > 100 µM each time.
